# How the values were obtained:
# P2Y purinoceptor 12 [1] = target: T1, P2Y purinoceptor 12 (Homo sapiens, UniProt Q9H244); assay: Inhibition of human P2Y12 receptor expressed in CHO cells
# [2] = Antiplatelet activity in human platelet rich plasma assessed as inhibition of ADP-induced platelet aggregation; format: functional
# [3] = Antiplatelet activity in human platelet rich plasma assessed as inhibition of ADP-induced platelet aggregation relative to AZD-6140; format: functional
# [4] = Metabolic stability in rat microsomes; format: ADME, Microsome
# [5] = Metabolic stability in human microsomes; format: ADME, Microsome
# [6] = Clearance in Sprague-Dawley rat at 2 mg/kg, iv and 5 mg/kg, po; format: ADME, organism-based; settings: in vivo
# [7] = Volume of distribution at steady state in Sprague-Dawley rat at 2 mg/kg, iv and 5 mg/kg, po; format: ADME, organism-based; settings: in vivo, read-out: Vdss
# [8] = Effective half life in Sprague-Dawley rat at 2 mg/kg, iv and 5 mg/kg, po; format: ADME, organism-based; settings: in vivo, read-out: t1/2eff (converted)
# [9] = Clearance in Beagle dog at 0.2 mg/kg, iv and 0.2 mg/kg, po; format: ADME, organism-based, Canis lupus familiaris; settings: in vivo
# [10] = Volume of distribution at steady state in Beagle dog at 0.2 mg/kg, iv and 0.2 mg/kg, po; format: ADME, organism-based, Canis lupus familiaris; settings: in vivo, read-out: Vdss
# [11] = Effective half life in Beagle dog at 0.2 mg/kg, iv and 0.2 mg/kg, po; format: ADME, organism-based, Canis lupus familiaris; settings: in vivo
# [12] = target: Voltage-gated inwardly rectifying potassium channel KCNH2 (Homo sapiens, UniProt Q12809); assay: Inhibition of human ERG
# Rattus norvegicus = assay: Toxicity in rat administered as 7 day repeat dose; format: organism-based; settings: in vivo, 168 h
# [13] = Solubility at pH 2.0; format: physicochemical; settings: buffer
# [14] = Solubility at pH 6.5; format: physicochemical; settings: buffer
# [15] = Solubility at pH 9.0; format: physicochemical; settings: buffer
# [16] = Antiplatelet activity in human platelet rich plasma assessed as inhibition of ADP-induced platelet aggregation by chronolog PRP aggregometry assay; format: functional
# P2Y purinoceptor 12 [17] = target: T1, P2Y purinoceptor 12; assay: Inhibition of human P2Y12 receptor expressed in CHO cells in presence of 0.4% human serum albumin
# [18] = Clearance in Beagle dog at 0.5 mg/kg, iv and 1 mg/kg, po; format: ADME, organism-based, Canis lupus familiaris; settings: in vivo
# [19] = Volume of distribution at steady state in Beagle dog at 0.5 mg/kg, iv and 1 mg/kg, po; format: ADME, organism-based, Canis lupus familiaris; settings: in vivo, read-out: Vdss
# [20] = Effective half life in Beagle dog at 0.5 mg/kg, iv and 1 mg/kg, po; format: ADME, organism-based, Canis lupus familiaris; settings: in vivo
# [21] = Protein binding in human plasma assessed as fraction unbound at 2 uM
# [22] = Protein binding in human plasma assessed as fraction unbound at 10 uM
# [23] = Protein binding in human plasma assessed as fraction unbound at 0.2 uM
# T1 sequence (Q9H244 whole entry): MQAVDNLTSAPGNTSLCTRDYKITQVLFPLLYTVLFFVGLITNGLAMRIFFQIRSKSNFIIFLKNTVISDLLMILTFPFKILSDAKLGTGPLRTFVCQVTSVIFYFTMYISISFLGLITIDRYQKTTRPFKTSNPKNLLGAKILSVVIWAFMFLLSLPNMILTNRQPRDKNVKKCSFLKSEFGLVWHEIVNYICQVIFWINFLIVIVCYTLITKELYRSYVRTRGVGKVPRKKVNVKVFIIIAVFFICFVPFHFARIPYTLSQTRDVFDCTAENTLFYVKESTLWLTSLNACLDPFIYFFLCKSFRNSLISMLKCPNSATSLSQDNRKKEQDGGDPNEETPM
# Voltage-gated inwardly rectifying potassium channel KCNH2, sequence (Q12809 whole entry): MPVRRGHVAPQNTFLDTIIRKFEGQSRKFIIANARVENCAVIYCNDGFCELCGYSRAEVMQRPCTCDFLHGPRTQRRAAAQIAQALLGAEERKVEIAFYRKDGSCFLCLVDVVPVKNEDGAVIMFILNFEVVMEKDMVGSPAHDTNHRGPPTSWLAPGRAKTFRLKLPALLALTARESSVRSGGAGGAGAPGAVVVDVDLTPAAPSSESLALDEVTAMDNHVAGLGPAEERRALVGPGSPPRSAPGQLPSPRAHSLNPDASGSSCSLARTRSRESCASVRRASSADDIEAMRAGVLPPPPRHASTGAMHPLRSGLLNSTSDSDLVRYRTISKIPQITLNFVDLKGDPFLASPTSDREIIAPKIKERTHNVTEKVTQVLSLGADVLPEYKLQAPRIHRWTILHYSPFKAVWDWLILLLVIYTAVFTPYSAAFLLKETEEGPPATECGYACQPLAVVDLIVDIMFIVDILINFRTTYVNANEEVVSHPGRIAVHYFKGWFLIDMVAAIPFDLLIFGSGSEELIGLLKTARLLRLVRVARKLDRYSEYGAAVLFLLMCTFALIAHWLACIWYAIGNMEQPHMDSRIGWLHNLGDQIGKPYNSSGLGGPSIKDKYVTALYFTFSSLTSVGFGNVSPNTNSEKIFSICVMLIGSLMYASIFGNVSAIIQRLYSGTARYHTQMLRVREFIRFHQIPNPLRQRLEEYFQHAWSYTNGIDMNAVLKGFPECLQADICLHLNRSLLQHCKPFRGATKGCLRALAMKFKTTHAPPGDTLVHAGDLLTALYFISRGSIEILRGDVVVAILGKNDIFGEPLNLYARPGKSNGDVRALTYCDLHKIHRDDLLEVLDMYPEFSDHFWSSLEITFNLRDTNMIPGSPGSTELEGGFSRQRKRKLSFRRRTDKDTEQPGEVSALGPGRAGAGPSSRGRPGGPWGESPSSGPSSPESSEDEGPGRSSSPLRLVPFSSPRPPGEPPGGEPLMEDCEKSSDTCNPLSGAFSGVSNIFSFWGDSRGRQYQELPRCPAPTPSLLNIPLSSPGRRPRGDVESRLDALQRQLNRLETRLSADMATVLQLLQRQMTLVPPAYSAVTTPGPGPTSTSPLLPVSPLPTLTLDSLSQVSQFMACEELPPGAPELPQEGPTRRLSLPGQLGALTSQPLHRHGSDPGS
Compound,Ki (P2Y purinoceptor 12 [1]),IC50 [2],fold change (FC) [3],Stability [4],Stability [5],clearance [6],Vd [7],half-life [8],other results
CCCCCOC(=O)N1CCN(C(=O)[C@H](CCC(=O)O)NC(=O)c2cc(N3CCC(C(=O)NCC)CC3)cc(-c3ccccc3)n2)CC1,0.58 nM,650 nM,1,Stable,Stable,11 mL/min/kg,0.3 L/kg,18 min,–
CCCCCOC(=O)N1CCN(C(=O)[C@H](CCC(=O)O)NC(=O)c2cc(N3CCC(COC)CC3)cc(-c3ccccc3)n2)CC1,–,3900 nM,3.3,Stable,Stable,–,–,–,clearance [9]: 1 mL/min/kg; Vd [10]: 0.14 L/kg; half-life [11]: 90 min
CCCCCOC(=O)N1CCN(C(=O)[C@H](CCC(=O)O)NC(=O)c2cc(N3CC[C@H](OCC(=O)N(C)C)C3)cc(-c3ccccc3)n2)CC1,5 nM,660 nM,0.75,Stable,Stable,41 mL/min/kg,0.8 L/kg,12 min,–
CCCCCOC(=O)N1CCN(C(=O)[C@H](CCC(=O)O)NC(=O)c2cc(N3CCN(C(C)=O)CC3)cc(-c3ccccc3)n2)CC1,22 nM,2300 nM,2.7,Stable,Stable,70 mL/min/kg,2.4 L/kg,24 min,–
CCCCCOC(=O)N1CCN(C(=O)[C@H](CCC(=O)O)NC(=O)c2cc(N3CC[C@@H](OCC(=O)N(CC)CC)C3)cc(-c3ccccc3)n2)CC1,3.5 nM,330 nM,0.38,Stable,Stable,87 mL/min/kg,2.1 L/kg,18 min,–
CCCCCOC(=O)N1CCN(C(=O)[C@H](CCC(=O)O)NC(=O)c2cc(N3CCC(C(=O)N4CCC4)CC3)cc(-c3ccccc3)n2)CC1,1.2 nM,410 nM,0.64,Stable,Stable,9 mL/min/kg,0.2 L/kg,18 min,–
CCCCCOC(=O)N1CCN(C(=O)[C@H](CCC(=O)O)NC(=O)c2cc(N3CCCC(CN4CCCC4)C3)cc(-c3ccccc3)n2)CC1 (some centres not stated),7.3 nM,1700 nM,1.5,Stable,Stable,47 mL/min/kg,1.8 L/kg,24 min,–
CCCCCOC(=O)N1CCN(C(=O)[C@H](CCC(=O)O)NC(=O)c2cc(N3CCC(C(=O)N4CCCC4)CC3)cc(-c3ccccc3)n2)CC1,2.8 nM,400 nM,0.65,Stable,Stable,5 mL/min/kg,0.5 L/kg,66 min,Kb [2]: 68 nM; IC50 [12]: > 90000 nM; Activity (Rattus norvegicus): Non-toxic; solubility [13]: 299 µM; solubility [14]: 48 µM; solubility [15]: 1290 µM; IC50 [16]: 325 nM; Ki (P2Y purinoceptor 12 [17]): 6.7 nM; clearance [18]: 2 mL/min/kg; Vd [19]: 0.18 L/kg; half-life [20]: 60 min; fraction unbound at 2 µM [21]: 0.057; fraction unbound at 10 µM [22]: 0.061; fraction unbound at 0.2 µM [23]: 0.053
CCCCCOC(=O)N1CCN(C(=O)[C@H](CCC(=O)O)NC(=O)c2cc(N3CCC(C(=O)N(CC)CC)CC3)cc(-c3ccccc3)n2)CC1,4 nM,520 nM,0.65,Stable,Stable,13 mL/min/kg,2.5 L/kg,36 min,clearance [9]: 2 mL/min/kg; Vd [10]: 0.12 L/kg; half-life [11]: 42 min
CCCCCOC(=O)N1CCN(C(=O)[C@H](CCC(=O)O)NC(=O)c2cc(N3CCN(C)CC3)cc(-c3ccccc3)n2)CC1,15 nM,2300 nM,2.5,Stable,Stable,141 mL/min/kg,10 L/kg,48 min,–
CCCCOC(=O)N1CCN(C(=O)[C@H](CCC(=O)O)NC(=O)c2cc(N3CCC(C(=O)N(CC)CC)CC3)cc(-c3ccccc3)n2)CC1,1.1 nM,430 nM,0.71,Stable,Stable,24 mL/min/kg,0.9 L/kg,24 min,–
CCCCCOC(=O)N1CCN(C(=O)[C@H](CCC(=O)O)NC(=O)c2cc(N3CCC(CNC(C)=O)CC3)cc(-c3ccccc3)n2)CC1,25 nM,6800 nM,3.9,Stable,Stable,–,–,–,–
CCCCCOC(=O)N1CCN(C(=O)[C@H](CCC(=O)O)NC(=O)c2cc(N3CCC(CCOC)CC3)cc(-c3ccccc3)n2)CC1,11 nM,2700 nM,3.5,Stable,Stable,–,–,–,–
CCCCCOC(=O)N1CCN(C(=O)[C@H](CCC(=O)O)NC(=O)c2cc(N3CCN(CCOC)CC3)cc(-c3ccccc3)n2)CC1,8.3 nM,1100 nM,2.1,Stable,Stable,–,–,–,–
CCCCCOC(=O)N1CCN(C(=O)[C@H](CCC(=O)O)NC(=O)c2cc(N3CCCC(OC)C3)cc(-c3ccccc3)n2)CC1 (some centres not stated),31 nM,5200 nM,6.3,Stable,Stable,–,–,–,–
CCCCOC(=O)N1CCN(C(=O)[C@H](CCC(=O)O)NC(=O)c2cc(N3CCC(CN4CCCC4=O)CC3)cc(-c3ccccc3)n2)CC1,0.79 nM,1100 nM,1.5,Stable,Stable,–,–,–,–
CCCCCOC(=O)N1CCN(C(=O)[C@H](CCC(=O)O)NC(=O)c2cc(N3CCN(CCN(C)C)CC3)cc(-c3ccccc3)n2)CC1,8.5 nM,510 nM,0.7,Stable,Stable,–,–,–,–
CCCCCOC(=O)N1CCN(C(=O)[C@H](CCC(=O)O)NC(=O)c2cc(N3CCC(CCN(C)C)CC3)cc(-c3ccccc3)n2)CC1,12 nM,390 nM,0.54,Stable,Stable,145 mL/min/kg,5.1 L/kg,24 min,–
CCCCCOC(=O)N1CCN(C(=O)[C@H](CCC(=O)O)NC(=O)c2cc(N3CCN(C(=O)N(CC)CC)CC3)cc(-c3ccccc3)n2)CC1,12 nM,3200 nM,4.6,Stable,Stable,–,–,–,–

# From ChEMBL document CHEMBL1156904, “Part II: piperazinyl-glutamate-pyridines as potent orally bioavailable P2Y12 antagonists for inhibition of platelet aggregation” (Bioorg Med Chem Lett, 2010)
